Laboratory results reported in PubChem BioAssay (NCI).
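GI50 is the concentration that inhibits growth by half. TGI is the concentration that stops growth completely.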

Assays:
Assay in all cases: NCI-60 cell line screen, 384-well format
[1] = system: SN12C renal
[2] = system: OVCAR-8 ovarian
[3] = system: SK-MEL-5 melanoma
[4] = system: HOP-92 NSCLC
[5] = system: MOLT-4 leukemia
[6] = system: LOX IMVI melanoma
[7] = system: CAKI-1 renal
[8] = system: IGROV1 ovarian
[9] = system: MCF7 breast
[10] = system: DU-145 prostate
[11] = system: U251 glioblastoma
[12] = system: SK-OV-3 ovarian
[13] = system: COLO 205 colon
[14] = system: NCI-H522 lung
[15] = system: MDA-MB-231 breast
[16] = system: ACHN renal
[17] = system: A549 NSCLC
[18] = system: OVCAR-4 ovarian
[19] = system: SR leukemia
[20] = system: MDA-MB-468 breast
[21] = system: RXF 393 renal
[22] = system: SNB-19 CNS
[23] = system: HOP-62 NSCLC
[24] = system: KM12 colon
[25] = system: T-47D breast
[26] = system: HT29 colon
[27] = system: SF-268 CNS
[28] = system: SNB-75 CNS
[29] = system: SF-295 CNS
[30] = system: OVCAR-3 ovarian
[31] = system: OVCAR-5 ovarian
[32] = system: A498 renal
[33] = system: PC-3 prostate
[34] = system: NCI-H460 NSCLC
[35] = system: SK-MEL-28 melanoma
[36] = system: TK-10 renal
[37] = system: HS 578T breast
[38] = system: NCI/ADR-RES ovarian
[39] = system: EKVX NSCLC
[40] = system: HCC-2998 colon
[41] = system: MALME-3M melanoma
[42] = system: BT-549 breast
[43] = system: UACC-62 melanoma
[44] = system: HCT-116 colon
[45] = system: HL-60(TB) leukemia
[46] = system: MDA-MB-435 melanoma
[47] = system: NCI-H226 lung
[48] = system: NCI-H23 lung
[49] = system: SF-539 CNS
[50] = system: UACC-257 melanoma
[51] = system: M14 melanoma
[52] = system: NCI-H322M lung
[53] = system: RPMI-8226 leukemia
[54] = system: HCT-15 colon

Compound `Cc1ccc(F)c(NC(=O)Nc2ccc(-c3cccc4[nH]nc(N)c34)cc2)c1` has a GI50 [1] of 1.26 µM, a TGI [1] of 2.89 µM and a GI50 [2] of 2.01 µM. For the same compound, the TGI [2] was 9.04 µM, the GI50 [3] was 1.34 µM and the TGI [3] was 2.67 µM. For the same compound, the GI50 [4] was 3.96 µM, the TGI [4] was 12.6 µM and the GI50 [5] was 1.91 µM. The TGI [5] was 3.35 µM, the GI50 [6] was 1.85 µM and the TGI [6] was 3.32 µM. The GI50 [7] was 2.84 µM, the TGI [7] was 7.73 µM and the GI50 [8] was 1.78 µM. For the same compound, the TGI [8] was 3.79 µM, the GI50 [9] was 1.08 µM and the TGI [9] was 4.28 µM. It also gave a GI50 [10] of 1.73 µM, a TGI [10] of 3.55 µM and a GI50 [11] of 2.27 µM. For the same compound, the TGI [11] was 4.83 µM, the GI50 [12] was 2.42 µM and the TGI [12] was 11.6 µM. It also gave a GI50 [13] of 1.93 µM, a TGI [13] of 4.29 µM and a GI50 [14] of 2.05 µM. It also gave a TGI [14] of 3.54 µM, a GI50 [15] of 3.83 µM and a TGI [15] of 15.2 µM. The GI50 [16] was 2.13 µM, the TGI [16] was 5.05 µM and the GI50 [17] was 3.14 µM. For the same compound, the TGI [17] was 9.44 µM, the GI50 [18] was 1.6 µM and the TGI [18] was 3.98 µM. It also gave a GI50 [19] of 1.49 µM, a TGI [19] of 2.82 µM and a GI50 [20] of 1.8 µM. The TGI [20] was 3.69 µM, the GI50 [21] was 1.56 µM and the TGI [21] was 3.59 µM. It also gave a GI50 [22] of 3.26 µM, a TGI [22] of 8.97 µM and a GI50 [23] of 1.94 µM. For the same compound, the TGI [23] was 5.5 µM, the GI50 [24] was 0.432 µM and the TGI [24] was 3.87 µM. It also gave a GI50 [25] of 2.85 µM, a TGI [25] of 14.2 µM and a GI50 [26] of 1.77 µM. The TGI [26] was 4.58 µM, the GI50 [27] was 2.3 µM and the TGI [27] was 7.63 µM. It also gave a GI50 [28] of 2.67 µM, a TGI [28] of 9.2 µM and a GI50 [29] of 3.17 µM. It also gave a TGI [29] of 10.5 µM, a GI50 [30] of 1.75 µM and a TGI [30] of 3.25 µM. For the same compound, the GI50 [31] was 1.82 µM, the TGI [31] was 3.89 µM and the GI50 [32] was 2.03 µM. The TGI [32] was 4.58 µM, the GI50 [33] was 2.31 µM and the TGI [33] was 4.82 µM. The GI50 [34] was 1.61 µM, the TGI [34] was 3.02 µM and the GI50 [35] was 4.44 µM. For the same compound, the TGI [35] was 15.6 µM, the GI50 [36] was 2.07 µM and the TGI [36] was 5.48 µM. It also gave a GI50 [37] of 2.19 µM, a TGI [37] of 5.31 µM and a GI50 [38] of 2.43 µM. The TGI [38] was 9.01 µM, the GI50 [39] was 2.13 µM and the TGI [39] was 4.53 µM. The GI50 [40] was 1.27 µM, the TGI [40] was 2.65 µM and the GI50 [41] was 1.93 µM. It also gave a TGI [41] of 4.24 µM, a GI50 [42] of 1.99 µM and a TGI [42] of 3.79 µM. For the same compound, the GI50 [43] was 2.31 µM, the TGI [43] was 5.7 µM and the GI50 [44] was 1.99 µM. It also gave a TGI [44] of 4.6 µM, a GI50 [45] of 1.27 µM and a TGI [45] of 2.54 µM. The GI50 [46] was 2.16 µM, the TGI [46] was 4.25 µM and the GI50 [47] was 2.44 µM. For the same compound, the TGI [47] was 9.13 µM, the GI50 [48] was 1.71 µM and the TGI [48] was 3.4 µM. The GI50 [49] was 1.44 µM, the TGI [49] was 3.49 µM and the GI50 [50] was 1.83 µM. For the same compound, the TGI [50] was 3.95 µM, the GI50 [51] was 1.96 µM and the TGI [51] was 4.86 µM. It also gave a GI50 [52] of 2.15 µM, a TGI [52] of 5.5 µM and a GI50 [53] of 1.76 µM. It also gave a TGI [53] of 3.16 µM, a GI50 [54] of 1.82 µM and a TGI [54] of 4.3 µM.
